According to patent US7060790B1, “Peptides and nucleic acids derived from Eisenia foetida and the use thereof” (Vlaams Interuniversitair Instituut voor Biotechnologie VZW, priority 1997, dated 2006):

What was measured:
[1] = target: T1, TNF-α (Mus musculus, UniProt P06804); test: Inhibition of TNF-α mediated trypanolysis (T. brucei) by antibodies and carbohydrates; format: cell-based; conditions: inhibitor 10 μg/ml, TNF-α 1.000 U/ml
T1 sequence (P06804 80-235 limits assumed): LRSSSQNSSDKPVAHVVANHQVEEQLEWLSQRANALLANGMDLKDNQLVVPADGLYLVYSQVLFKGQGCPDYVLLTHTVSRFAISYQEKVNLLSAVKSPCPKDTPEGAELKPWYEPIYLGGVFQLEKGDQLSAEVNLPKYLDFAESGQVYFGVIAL
Experimental: (§1) Purified parasites were resuspended at 4×10^6/ml PSG (PBS, consisting of 2.13 g NaCl, 8.45 g Na2HPO4 and 0.43 g NaH2PO4 per liter, supplemented with 1% glucose). […] of suspension were mixed with […] of different concentrations of CF, CCF-1 or TNF-α in 96-well culture plate. Quantification of the trypanolysis was based on the determination of parasite viability using Ethidium homodimer (EthD-1, Molecular Probes). EthD-1 is excluded by intact plasma membrane of live parasites. However, it enters the cells with damaged membrane and undergoes enhancement of fluorescence on binding nucleic acids, thereby producing a bright red fluorescence in dead cells. Briefly, after 4.5 hrs incubation at 30° C., […] of […] EthD-1 was added to the wells. The mean fluorescence intensity of triplicate cultures (±SD) was recorded 30 min later in a cytofluorimeter (Cytofluor II, PerSeptive Biosystems) using excitation/emission filters at 530±25/645±40 nm. A set of control was included in each experiments: (A) a parasite-free control to account for possible background fluorescence (B) a control of 100% lysis, prepared by treating the parasites with […] 2% saponin for about 10 min before adding EthD-1 (C) a control in which the trypanolytic component was replaced by PSG was considered as 0% lysis. (B) and (C) were used to build a standard curve and the % lysis in test samples was estimated by linear regression. In some assays parasite lysis was assessed by light microscopy counting the remaining parasites. Background lysis, i.e. lysis of trypanosomes within 5 hrs incubation at 30° C. in absence of lytic molecules, never exceeded 5–10%.
(§2) For inhibition experiments CCF-1 or TNF-α were pre-incubated 1 hr at 30° C. with 10 […] of antibodies (anti-CCF1, anti-TIP or irrelevant mAb) or sugars (chitobiose, cellobiose, Sigma). All experiments were repeated at least 3 times.

[2] = test system: CCF-1; test: Inhibition of the cytolytic activity of CCF-1 (L929) by antibodies and carbohydrates; format: cell-based, Eisenia foetida
Experimental: To test whether the cytolytic activity of CCF-1 is mediated by a similar or a different domain as that one utilized for the trypanolytic activity, CCF-1 was preincubated with N,N′-diacetylchitobiose or anti-TNF/TIP antibodies and tested in the L-929 lysis assay (21). […] This is in sharp contrast to the cytolytic activity of TNF-α that is not influenced by anti-TNF/TIP antibodies nor by N,N′-diacetylchitobiose.

[3] = test system: trypanolytic activity (T. cruzi) of CF; test: Inhibition of the trypanolytic activity (T. cruzi) of CF by antibodies and carbohydrates; format: cell-based
Experimental: as §1, §2

[4] = test system: CCF-1; test: Inhibition of CCF-1 mediated trypanolysis (T. brucei) by antibodies and carbohydrates; format: cell-based, Eisenia foetida; conditions: for CCF-1 mediated trypanolysis % Inhibition / CCF-1 mediated trypanolysis % Lysis: inhibitor 10 μg/ml, CCF-1 4 μg/ml
Experimental: as §1, §2

[5] = test system: Trypanosoma brucei AnTat 1.1E; test: Trypanolytic assay on T. brucei; format: cell-based
Experimental: Pleiomorphic and monomorphic Trypanosoma brucei AnTat 1.1E clone were provided by Dr N. Van Meirvenne (Institute of Tropical Medicine, Antwerp, Belgium).
as §1

[6] = test system: anti-CCF-1 mAb 12C9; test: Dot spot assay of tryptic peptides with anti-CCF-1 mAb; format: binding
Experimental: The separated peptides obtained from HPLC purification of the tryptic digest of CCF-1 were analyzed for reactivity with the anti-CCF-1 mAb via a dot spot assay. […] The obtained sequence is shown in SEQ ID NO:1.

[7] = Binding to chitobiose
[8] = test system: T. cruzi; test: Trypanolytic activity on T. cruzi; format: cell-based; conditions: trypomastigote versus epimastigote forms
Experimental: as §1, with “(B) and (C) were used to build a standard curve and the % lysis in test samples was estimated by linear regression.” left out, “Background lysis, i.e. lysis of trypanosomes within 5 hrs incubation at 30° C. in absence of lytic molecules, never exceeded 5–10%.” left out

[9] = Experiment 1, inhibitor 10 μg/ml, CCF-1 4 μg/ml, L929
[10] = inhibitor 10 μg/ml, CF final dilution 1:4.000

With `CC(=O)N[C@H]1[C@H](O[C@H]2[C@H](O)[C@@H](NC(C)=O)C(O)O[C@@H]2CO)O[C@H](CO)[C@@H](O)[C@@H]1O` (stereo partly shown) [N,N′-diacetylchitobiose] the “TNF-α mediated trypanolysis % Inhibition” value [1] was 100%, the “TNF-α mediated trypanolysis % Lysis” value [1] was 0% and the “inhibition of the interaction of CCF-1 with L-929 cells (in words)” value ([2]; CCF-1 preincubated with inhibitor) was “completely inhibited”. The “CCF-1 mediated cytolysis % Inhibition” value [2, 9] was 100%, the “CCF-1 mediated cytolysis % Lysis” value [2, 9] was 0% and the “inhibition of the T. cruzi lytic activity of CF (in words)” value [3] was “substantially decreased”. For the same molecule, the “CF-1 mediated trypanolysis % Inhibition” value [3, 10] was 70%, the “CF-1 mediated trypanolysis % Lysis” value [3, 10] was 19% and the “inhibition of the trypanolytic activity of CCF-1 (in words)” value [4] was “found to inhibit also the trypanolytic activity of CCF-1”. For the same molecule, the “CCF-1 mediated trypanolysis % Inhibition” value [4] was 73%, the “CCF-1 mediated trypanolysis % Lysis” value [4] was 3% and the “inhibition of the trypanolytic activity of rCCF-1 (in words)” value ([4]; rCCF-1, FIG. 3A, 3B) was “inhibits potently”.
In the case of `O=C[C@H](O)[C@@H](O)[C@H](O[C@@H]1O[C@H](CO)[C@@H](O)[C@H](O)[C@H]1O)[C@H](O)CO` [Cellobiose], the “TNF-α mediated trypanolysis % Lysis” value [1] was 41%, the inhibition at 10 µg/mL [1] was 0% and the inhibition at 10 µg/mL ([3]; Trypanosoma cruzi, inhibitor 10 μg/ml, CF final dilution 1:4.000, read-out: CF-1 mediated trypanolysis % Inhibition) was 0%. For the same molecule, the “CF-1 mediated trypanolysis % Lysis” value [3, 10] was 67%, the “inhibition of the trypanolytic activity of CCF-1 (in words)” value [4] was “does not influence the trypanolytic activity of CCF-1” and the “CCF-1 mediated trypanolysis % Inhibition” value [4] was 0%. The “CCF-1 mediated trypanolysis % Lysis” value [4] was 49%.
In the case of “NH2-SGEIDIIETIGNR-COOH (chain 1 H-SGEIDIIETIGNR-OH; chain 2 H-SGEIDIIETIGNR-OH; listed as Eisenia foetida) [CCF-1/TIP]”, the “trypanolytic activity on T. brucei (in words)” value [5] was “trypanolytic in a time- and dose-dependent way”, the “trypanolytic activity compared with the TNF/TIP peptide” value ([5]; FIG. 1) was “reproducibly more trypanolytic than the TNF/TIP peptide” and the “reactivity with the anti-CCF-1 mAb 12C9 in dot spot assay” value [6] was “weakly positive”.
In the case of TNF-α, the “binding to chitobiose / binding capacity towards N,N′-diacetylchitobiose” value [7] was “bind to immobilized chitobiose”, the “T. cruzi forms on which trypanolytic activity was recorded” value [8] was “only be recorded on the trypomastigote but not the epimastigote forms” and the “TNF-α mediated trypanolysis % Lysis” value ([5]; TNF-α 1.000 U/ml, no inhibitor) was 41%.
